Experimental data: patent US10329261B1, “Method of preparing 6-chloro-5-nitro-2,4-diaminopyrimidine and its application thereof” (XI'AN TAIKOMED PHARMACEUTICAL TECHNOLOGY CO., LTD., priority 2018, dated 2019)

Assays:
[1] = test system: Dami; assay: CCK8 assay, growth inhibition of leukemia cells; assay type: cell-based, human; settings: for inhibition at 1 µM / inhibition at 5 µM / inhibition at 10 µM / inhibition at 50 µM / inhibition at 100 µM: Homo sapiens, 48 hours, read-out: Inhibition Rate % (X ± SD, n = 5); for inhibition at 1 µM: 1 μmol/L; for inhibition at 5 µM: 5 μmol/L; for inhibition at 10 µM: 10 μmol/L; for inhibition at 50 µM: 50 μmol/L; for inhibition at 100 µM: 100 μmol/L
Description: (§1) Measuring the Inhibitory Effect of 6-Chloro-5-Nitro-2,4-Diaminopyrimidine on the Growth of Six Leukemia Cells by CCK8 Assay
(§2) Cell lines: HL-60 (acute myeloid leukemia), Jurkat (acute T cell leukemia), K562 (chronic myeloid leukemia), EOL-1 (human eosinophil leukemia), Dami (human megakaryocytic leukemia), 6T-CEM (human T cell leukemia) were provided by the Affiliated Hospital of Guangdong Medical College. The cells were cultured in RPMI1640 medium containing 10% fetal bovine serum, penicillin 100 U/mL, streptomycin 100 mg/L, at 37° C., 5% CO2, and saturated humidity, in incubator, and logarithmic growth phase cells were used for experiments.
(§3) Test compounds: Imatinib solution and 6-chloro-5-nitro-2,4-diaminopyrimidine solution were prepared with physiological saline, and the final concentrations of the compounds were 1, 5, 10, 50, and 100 μmol/L.
(§4) Test method: Take the logarithmic growth leukemia cell lines, count, and inoculate at a density of 1×10^5/mL in a 96-well culture plate, 100 μL per well. After 24 hours of culture, 100 μL medium containing the different concentrations (double the target/final concentration) of compounds was added to each well. The medium containing the highest concentration of DMSO was used as a control. After 48 hours, 20 μL of CCK8 coloring solution was added to each well, the color was developed at 37° C., and OD450 was measured with a microplate reader until the absorbance was about 1.5. The inhibition rate was calculated by the following formula. Inhibition Rate (%)=(1−absorbance of the test compound/absorbance of the control)×100%

[2] = test system: 6T-CEM; assay: CCK8 assay, growth inhibition of leukemia cells; assay type: cell-based, human; settings: for inhibition at 1 µM / inhibition at 5 µM / inhibition at 10 µM / inhibition at 50 µM / inhibition at 100 µM: Homo sapiens, 48 hours, read-out: Inhibition Rate % (X ± SD, n = 5); for inhibition at 1 µM: 1 μmol/L; for inhibition at 5 µM: 5 μmol/L; for inhibition at 10 µM: 10 μmol/L; for inhibition at 50 µM: 50 μmol/L; for inhibition at 100 µM: 100 μmol/L
Description: as §1, §2, §3, §4

[3] = test system: EOL-1; assay: CCK8 assay, growth inhibition of leukemia cells; assay type: cell-based, human; settings: for inhibition at 1 µM / inhibition at 5 µM / inhibition at 10 µM / inhibition at 50 µM / inhibition at 100 µM: Homo sapiens, EOL1, 48 hours, read-out: Inhibition Rate % (X ± SD, n = 5); for inhibition at 1 µM: EOL-1, 1 μmol/L; for inhibition at 5 µM: EOL-1, 5 μmol/L; for inhibition at 10 µM: EOL-1, 10 μmol/L; for inhibition at 50 µM: EOL-1, 50 μmol/L; for inhibition at 100 µM: EOL-1, 100 μmol/L
Description: as §1, §2, §3, §4

[4] = test system: K-562; assay: CCK8 assay, growth inhibition of leukemia cells; assay type: cell-based; settings: for inhibition at 1 µM / inhibition at 5 µM / inhibition at 10 µM / inhibition at 50 µM / inhibition at 100 µM: Homo sapiens, K562, 48 hours, read-out: Inhibition Rate % (X ± SD, n = 5); for inhibition at 1 µM: K-562, 1 μmol/L; for inhibition at 5 µM: K-562, 5 μmol/L; for inhibition at 50 µM: K-562, 50 μmol/L; for inhibition at 100 µM: K-562, 100 μmol/L
Description: as §1, §2, §3, §4

[5] = test system: Jurkat; assay: CCK8 assay, growth inhibition of leukemia cells; assay type: cell-based; settings: for inhibition at 1 µM / inhibition at 5 µM / inhibition at 10 µM / inhibition at 50 µM / inhibition at 100 µM: Homo sapiens, 48 hours, read-out: Inhibition Rate % (X ± SD, n = 5); for inhibition at 1 µM: 1 μmol/L; for inhibition at 5 µM: 5 μmol/L; for inhibition at 10 µM: 10 μmol/L; for inhibition at 50 µM: 50 μmol/L; for inhibition at 100 µM: 100 μmol/L
Description: as §1, §2, §3, §4

[6] = test system: HL-60; assay: CCK8 assay, growth inhibition of leukemia cells; assay type: cell-based; settings: for inhibition at 1 µM / inhibition at 5 µM / inhibition at 10 µM / inhibition at 50 µM / inhibition at 100 µM: Homo sapiens, 48 hours, read-out: Inhibition Rate % (X ± SD, n = 5); for inhibition at 1 µM: HL-60, 1 μmol/L; for inhibition at 5 µM: HL-60, 5 μmol/L; for inhibition at 10 µM: HL-60, 10 μmol/L; for inhibition at 50 µM: HL-60, 50 μmol/L; for inhibition at 100 µM: HL-60, 100 μmol/L
Description: as §1, §2, §3, §4

[7] = test system: K-562 leukemia; assay: Inhibition test of nude mice inoculated with K-562 cell line; assay type: in vivo; settings: for Tumor weight (X ± SE) / Inhibition (%): ip × 7, nude mice with K-562; for Tumor weight (X ± SE): in g (unit assumed); for Inhibition (%): tumor inhibition rate
Description: Inhibition Test of Nude Mice Inoculated with K-562 Cell Line
Test compounds: 6-chloro-5-nitro-2,4-diaminopyrimidine and imatinib dissolved in normal saline.
Administration route: intraperitoneal injection (ip).
Test animals: nude mice, SPF level.
Cell line: chronic myeloid leukemia cell line K-562, from the Affiliated Hospital of Guangdong Medical College
Test method: 50 nude mice weighing 18-22 grams, both male and female. The K-562 cell was diluted to a final concentration of 10 million cells/mL for leukemia cells; each mouse was inoculated subcutaneously with 0.2 mL (containing […] leukemia cells). On the next day, the mice were randomly divided to 5 groups: 6-chloro-5-nitro-2,4-diaminopyrimidine group (dose: 3 mg/kg), 6-chloro-5-nitro-2,4-diaminopyrimidine group (dose: 8 mg/kg), 6-chloro-5-nitro-2,4-diaminopyrimidine group (dose: 20 mg/kg), positive control group (imatinib, 8 mg/kg) and blank control group. The 6-chloro-5-nitro-2,4-diaminopyrimidine groups and the positive control group were administered once a day for 7 consecutive days; the blank control group was given a corresponding volume of NS liquid. No test compounds were given for one day after the last dose. Animals were sacrificed by cervical dislocation, and weighed and dissected to weigh. The tumor weights were calculated for each group. The leukemia inhibition rate was calculated according to the following formula. Tumor inhibition rate=(mean tumor weight in the control group−average tumor weight in the administration group)/mean tumor weight in the control group×100%,

With `Nc1nc(N)c([N+](=O)[O-])c(Cl)n1` [6-chloro-5-nitro-2,4-diaminopyrimidine] the “inhibitory effect on the cell line (in words)” value (“inhibitory effect” below) [1] was “does not show any inhibition”, the inhibition at 1 µM [1] was -14.2% and the inhibition at 5 µM [1] was -17.7%. For the same molecule, the inhibition at 10 µM [1] was -22%, the inhibition at 50 µM [1] was -26% and the inhibition at 100 µM [1] was -30.3%. The “inhibitory effect” value [2] was “does not show any inhibition”, the inhibition at 1 µM [2] was -17.5% and the inhibition at 5 µM [2] was -21.1%. It also gave an inhibition at 10 µM [2] of -25.5%, an inhibition at 50 µM [2] of -28.1% and an inhibition at 100 µM [2] of -31%. The “inhibitory effect” value ([3]; EOL-1) was “does not show any inhibition”, the inhibition at 1 µM [3] was -22.4% and the inhibition at 5 µM [3] was -23%. For the same molecule, the inhibition at 10 µM [3] was -23.3%, the inhibition at 50 µM [3] was -19.3% and the inhibition at 100 µM [3] was -18.9%. For the same molecule, the inhibition at 1 µM [4] was 45.5%, the inhibition at 5 µM [4] was 61.5% and the inhibition at 10 µM ([4]; K-562, 10 μmol/L) was 76.8%. For the same molecule, the inhibition at 50 µM [4] was 77.3%, the inhibition at 100 µM [4] was 78.4% and the “inhibition rate compared with imatinib” value ([4]; K-562, 10 μmol/L) was “exceeds that of imatinib”. The “inhibitory effect” value ([4]; K-562 cell line) was “good inhibitory effect”, the “selectivity among the six leukemia cell lines (in words)” value ([4]; K-562 versus HL-60, Jurkat, EOL-1, Dami, 6T-CEM) was “selectively inhibits chronic myelogenous leukemia cell line” and the “inhibitory effect” value [5] was “does not show any inhibition”. The inhibition at 1 µM [5] was -13.5%, the inhibition at 5 µM [5] was -15.9% and the inhibition at 10 µM [5] was -27%. For the same molecule, the inhibition at 50 µM [5] was -28.1%, the inhibition at 100 µM [5] was -30% and the “inhibitory effect” value ([6]; HL-60) was “does not show any inhibition”. For the same molecule, the inhibition at 1 µM [6] was 3.87%, the inhibition at 5 µM [6] was -1.12% and the inhibition at 10 µM [6] was -7.66%. For the same molecule, the inhibition at 50 µM [6] was -9.26%, the inhibition at 100 µM [6] was -14.2% and the “Tumor weight (X ± SE)” value ([7]; 3 mg/kg) was 1.84. The “Tumor weight (X ± SE)” value ([7]; 8 mg/kg) was 0.87, the “Tumor weight (X ± SE)” value ([7]; 20 mg/kg) was 0.74 and the “Inhibition (%)” value ([7]; 3 mg/kg) was 48.41%. The “Inhibition (%)” value ([7]; 8 mg/kg) was 75.18% and the “Inhibition (%)” value ([7]; 20 mg/kg) was 79.34%.
`Cc1ccc(NC(=O)c2ccc(CN3CCN(C)CC3)cc2)cc1Nc1nccc(-c2cccnc2)n1` [Imatinib, reference compound] was tested, and the inhibition at 1 µM [1] was 61.3%, the inhibition at 5 µM [1] was 65.4% and the inhibition at 10 µM [1] was 69.3%. The inhibition at 50 µM [1] was 82.1%, the inhibition at 100 µM [1] was 89.4% and the inhibition at 1 µM [2] was 68.2%. The inhibition at 5 µM [2] was 70.8%, the inhibition at 10 µM [2] was 74.9% and the inhibition at 50 µM [2] was 86.5%. The inhibition at 100 µM [2] was 91.3%, the inhibition at 1 µM [3] was 63.6% and the inhibition at 5 µM [3] was 66.2%. For the same molecule, the inhibition at 10 µM [3] was 68.4%, the inhibition at 50 µM [3] was 79.1% and the inhibition at 100 µM [3] was 86.4%. It also gave an inhibition at 1 µM [4] of 66.4%, an inhibition at 5 µM [4] of 67.9% and an inhibition at 10 µM ([4]; K-562, 10 μmol/L) of 71.6%. It also gave an inhibition at 50 µM [4] of 83.1%, an inhibition at 100 µM [4] of 88.3% and an inhibition at 1 µM [5] of 66.7%. For the same molecule, the inhibition at 5 µM [5] was 71%, the inhibition at 10 µM [5] was 73.3% and the inhibition at 50 µM [5] was 85.7%. The inhibition at 100 µM [5] was 90.9%, the inhibition at 1 µM [6] was 62.2% and the inhibition at 5 µM [6] was 69.5%. For the same molecule, the inhibition at 10 µM [6] was 64.6%, the inhibition at 50 µM [6] was 83.1% and the inhibition at 100 µM [6] was 84.5%. The “Number of mice before and after” value ([7]; 8 mg/kg, ip × 7) was 10/10, the “Tumor weight (X ± SE)” value ([7]; 8 mg/kg) was 0.93 and the Mouse weight after ([7]; 8 mg/kg, ip × 7, weight before 19.5) was 20.4. For the same molecule, the “Inhibition (%)” value ([7]; 8 mg/kg) was 74.02%.
